# Source: publication PMC11352258, “The Influence of Betulin and Its Derivatives on Selected Colorectal Cancer Cell Lines’ Viability and Their Antioxidant Systems” (Cells, 2024)
# Several values for one entry are separate records, joined by “and”; a condition that tells them apart may be missing. Equal values may be shown once. Read-outs that look alike come from different tables or passages of the source.
# Experiments:
# RKO cells [1] = experiment: MTT cytotoxicity assay, RKO
# Protocol: (§1) Six colorectal cancer cell lines, RKO, HT29, DLD-1, HCT116, Caco2 and SW1116 (CRL-2577, HTB-38, CCL-221, CCL-247, HTB-37, CCL-233; ATCC, Manassas, VA, USA, respectively, for CRC lines), and one normal cell line, CCD-841CoN (CRL-1790, ATCC, USA), were routinely cultured at 37 °C in a 5% CO2 incubator (Direct Heat CO2; Thermo Scientific, Waltham, MA, USA) in cell line-appropriate culture medium according to the manufacturer’s recommendations. Eagle’s minimum essential medium (EMEM) was used to culture RKO, Caco2 and CCD-841CoN lines, while McCoy’s 5A medium was used for HT29 and HCT116 lines. DLD-1 cells were grown in RPMI-1640 medium, whereas SW1116 cells were maintained in Leibovitz’s L-15 medium. All culture media were supplemented with 10% fetal bovine serum (EuroClone, Milan, Italy), and gentamycin at the concentration […] (BioWhittaker, Lonza, Basel, Switzerland) was also applied to prevent culture contamination.
# (§2) For this purpose, cells were exposed to the test compound for 24 h at concentrations of 0.1, 1, 10, 20, 50 and 100 μg/mL. Control cells were not treated with the compounds. MTT (0.25 mg/mL) was then added to the cultures and incubated for 3 h at 37 °C. After a time, the cells were washed with phosphate buffered saline (PBS), and next, formazan dye was dissolved in 100 μL of dimethyl sulfoxide (Sigma-Aldrich, St Louis, MO, USA). Absorbance was measured at 540 nm using a Wallac 1420 VICTOR microplate reader (PerkinElmer, Waltham, MA, USA).
# HT29 cells = experiment: MTT cytotoxicity assay, HT29; format: cell-based; conditions: HT29, MTT, 24 h; for IC50: read-out: IC50 value
# Source text: (§3) Control cells were not treated with the compounds.
# DLD-1 cells = experiment: MTT cytotoxicity assay, DLD-1; format: cell-based; conditions: DLD-1, MTT, 24 h; for IC50: read-out: IC50 value
# Source text: as §3
# HCT116 cells = experiment: MTT cytotoxicity assay, HCT116; format: cell-based; conditions: HCT 116, MTT, 24 h; for IC50: read-out: IC50 value
# Source text: as §3
# SW1116 cells [2] = experiment: MTT cytotoxicity assay, SW1116; conditions: for IC50: read-out: IC50 value
# Protocol: as §1, §2
# CCD-841CoN cells = experiment: in vitro; format: cell-based; conditions: CCD-841CoN normal cells, MTT, 24 h; for IC50: read-out: IC50 value
# Source text: as §3
# RKO cells [3] = experiment: Total antioxidant capacity (ABTS+), RKO; format: cell-based; conditions: 10 µg/mL, 24 h
# Protocol: (§4) In addition, two colorectal cancer cell lines, RKO and SW1116, were distinguished based on a different response to the EB5 derivative. To perform subsequent analyses, the selected CRC lines were treated with EB5 derivative at a concentration of 10 µg/mL for 24 h. Untreated cells were used as a negative control. Three biological replicates were performed.
# (§5) To examine the antioxidant capacity of the cells as well as lipid peroxidation and to evaluate the activity of antioxidant enzymes, the cells were suspended in lysis buffer (containing 4 mg of […]™ Protease Inhibitor Cocktail and 10 µL of Phosphatase Inhibitor Cocktail 3 in 1 mL of PBS; Sigma-Aldrich, St Louis, MO, USA). Subsequently, the cells were placed in liquid nitrogen for 30 min, followed by storage at −80 °C until further analysis.
# The ABTS+ radical cation was used to assess the total antioxidant capacity (TAC) of the tested cells. The principle of the method is based on the reduction of the formed blue-green chromophore ABTS+ as a result of the reaction of ABTS (Sigma-Aldrich, St Louis, MO, USA) with potassium persulphate (Sigma-Aldrich, St Louis, MO, USA). The degree of decolorization of the ABTS+ radical cation depends on the antioxidant activity of the cells and is determined as a function of concentration and time in relation to Trolox reactivity (TEAC-Trolox equivalent antioxidant capacity).
# RKO cells [4] = experiment: Lipid peroxidation, MDA assay, RKO; format: cell-based; conditions: 10 µg/mL, 24 h
# Protocol: (§6) In addition, two colorectal cancer cell lines, RKO and SW1116, were distinguished based on a different response to the EB5 derivative. […] Untreated cells were used as a negative control. Three biological replicates were performed. To examine the antioxidant capacity of the cells as well as lipid peroxidation and to evaluate the activity of antioxidant enzymes, the cells were suspended in lysis buffer (containing 4 mg of […]™ Protease Inhibitor Cocktail and 10 µL of Phosphatase Inhibitor Cocktail 3 in 1 mL of PBS; Sigma-Aldrich, St Louis, MO, USA). Subsequently, the cells were placed in liquid nitrogen for 30 min, followed by storage at −80 °C until further analysis. To assess the level of lipid peroxidation, the Malondialdehyde Assay Kit (Aoxre BioSciences, Burlingame, CA, USA) was used, according to the manufacturer’s recommendations.
# SW1116 cells [5] = experiment: Lipid peroxidation, MDA assay, SW1116; format: cell-based; conditions: SW1116, 10 µg/mL, 24 h
# Protocol: as §6
# [6] = tested on: catalase (CAT) activity in RKO cells; experiment: CAT activity in RKO cells; format: cell-based; conditions: 10 µg/mL, 24 h
# Protocol: as §4, §5
# (§7) Superoxide dismutase (SOD), glutathione peroxidase (GPx) and catalase (CAT) activities were assessed using a commercially purchased Cayman Chemicals Superoxide Dismutase Assay Kit, a Cayman Chemicals Glutathione Peroxidase Assay Kit and a Catalase Assay Kit (Cayman Chemicals, Ann Arbor, MI, USA), respectively, according to the manufacturer’s recommendations and based on a previous study. […] The level of change in absorbance was measured spectrophotometrically at the appropriate wavelength for the assay, i.e., for SOD in the range 440–460 nm, for GPx at 340 nm and for CAT at 540 nm.
# [7] = tested on: catalase (CAT) activity in SW1116 cells; experiment: CAT activity in SW1116 cells; format: cell-based; conditions: SW1116, 10 µg/mL, 24 h
# Protocol: as §4, §5
# Superoxide dismutase (SOD), glutathione peroxidase (GPx) and catalase (CAT) activities were assessed using a commercially purchased Cayman Chemicals Superoxide Dismutase Assay Kit, a Cayman Chemicals Glutathione Peroxidase Assay Kit and a Catalase Assay Kit (Cayman Chemicals, Ann Arbor, MI, USA), respectively, according to the manufacturer’s recommendations and based on a previous study. The cell supernatant from previously prepared cell lysates of the tested lines provided material for further analyses. The level of change in absorbance was measured spectrophotometrically at the appropriate wavelength for the assay, i.e., for SOD in the range 440–460 nm, for GPx at 340 nm and for CAT at 540 nm.
# [8] = tested on: SOD1 gene expression in RKO cells; experiment: SOD1 mRNA, real-time RT-qPCR, RKO; format: cell-based; conditions: 10 µg/mL, 24 h
# Protocol: as §4
# (§8) Total RNA from treated cells was extracted using TRIzol reagent (Sigma-Aldrich, St Louis, MO, USA) according to the manufacturer’s instructions. The obtained RNA was assessed qualitatively and quantitatively by agarose gel electrophoresis and by spectrophotometric measurement using MaestroNano MN-913 (MaestroGen Inc., Las Vegas, NV, USA), respectively. The obtained extracts provided the starting material for the assessment of genes changes at the mRNA level.
# (§9) Changes in the expression of SOD1, SOD2, CAT and GPX3 genes involved in antioxidant systems were assessed by real-time RT-qPCR using a LightCycler® 480 System apparatus (Roche, Basel, Switzerland). A commercially purchased GoTaq® 1-Step RT-qPCR System (Promega, Madison, WI, USA) was used, while the primers and reaction conditions were the same as in the previous study performed by Kruszniewska-Rajs et al.. GAPDH was used as the reference gene. The mRNA expression level studied genes were then determined by the 2^−ΔCt relative quantification method. All samples were tested in triplicate. The specificity of the reaction was evaluated based on the melting temperature curve, as well as using electrophoresis of the amplification products in a 2% agarose gel.
# [9] = tested on: SOD2 gene expression in RKO cells; experiment: SOD2 mRNA, real-time RT-qPCR, RKO; format: cell-based; conditions: 10 µg/mL, 24 h
# Protocol: as §4, §8, §9
# [10] = tested on: CAT gene expression in RKO cells; experiment: CAT mRNA, real-time RT-qPCR, RKO; format: cell-based; conditions: 10 µg/mL, 24 h
# Protocol: as §4, §8, §9
# [11] = tested on: CAT gene expression in SW1116 cells; experiment: CAT mRNA, real-time RT-qPCR, SW1116; format: cell-based; conditions: SW1116, 10 µg/mL, 24 h
# Protocol: as §4, §8, §9
# Caco2 cells = experiment: MTT cytotoxicity assay, Caco2; format: cell-based; conditions: Homo sapiens, Caco-2; Caco2, MTT, 24 h; read-out: IC50 value
# in vitro = format: cell-based; conditions: human
# Source text: as §3
# [12] = tested on: superoxide dismutase (SOD) activity in RKO cells; experiment: SOD activity in RKO cells; format: cell-based; conditions: 10 µg/mL, 24 h
# Protocol: as §4, §5, §7
# [13] = tested on: SOD2 gene expression in SW1116 cells; experiment: SOD2 mRNA, real-time RT-qPCR, SW1116; format: cell-based; conditions: SW1116, 10 µg/mL, 24 h
# Protocol: as §4, §8, §9
structure (smiles),measurement,setting,value
"N.N.[Cl][Pt][Cl] [Cisplatin, cisplatin]",IC50 value,"RKO cells [1]; MTT, 24 h",6.35 µg/mL
same,IC50,"RKO cells [1]; read-out: IC50 value, MTT, 24 h",21.2 µM
same,IC50 value,HT29 cells,>100 µg/mL
same,IC50,HT29 cells,> 333 µM
same,IC50 value,DLD-1 cells,27.72 µg/mL
same,IC50,DLD-1 cells,92.4 µM
same,IC50 value,HCT116 cells,3.02 µg/mL
same,IC50,HCT116 cells,10.1 µM
same,IC50 value,"SW1116 cells [2]; SW1116, MTT, 24 h",>100 µg/mL
same,IC50,"SW1116 cells [2]; SW1116, MTT, 24 h",> 333 µM
same,IC50 value,CCD-841CoN cells,27.59 µg/mL
same,IC50,CCD-841CoN cells,91.9 µM
same,reduction in TAC compared to the control cells,RKO cells [3],about 23.6%
same,MDA level compared to the control group,RKO cells [4],did not cause changes
same,MDA level compared to 5FU-treated cells,SW1116 cells [5],higher level of MDA
same,MDA level compared to betulin-treated cells,SW1116 cells [5],higher level of MDA
same,MDA level compared to the control,SW1116 cells [5],higher level of MDA
same,CAT activity compared to the betulin-treated cells,[6],slight decrease
same,catalase activity compared to cells treated with EB5,[7],higher catalase activity
same,catalase activity compared to cells treated with betulin,[7],higher catalase activity
same,catalase activity compared to the control,[7],higher catalase activity
same,SOD1 gene expression vs. 5FU-treated cells,[8],statistically significant increase in expression
same,SOD1 gene expression vs. non-treated cells,[8],statistically significant increase in expression
same,SOD2 gene expression vs. 5FU-treated cells,[9],higher expression
same,SOD2 gene expression vs. untreated cells,[9],statistically significant increase in SOD2 gene expression
same,CAT gene expression vs. 5FU,[10],significant increase in expression
same,CAT gene expression vs. 5FU,[11],difference in the expression
"C#CC(=O)OC[C@]12CC[C@@H](C(=C)C)[C@@H]1[C@H]1CC[C@@H]3[C@@]4(C)CC[C@H](O)C(C)(C)[C@@H]4CC[C@@]3(C)[C@]1(C)CC2 [EB5, 28-propynylobetulin]",viability at 10 µg/mL,"RKO cells [1]; Homo sapiens, 24 h",≥ 50%
same,IC50,"RKO cells [1]; Homo sapiens, 24 h, read-out: IC50 value",12.2 µg/mL and 24.6 µM
same,IC50,"HT29 cells; Homo sapiens, HT-29",8.25 µg/mL and 16.7 µM
same,IC50,DLD-1 cells; Homo sapiens,11.1 µg/mL and 22.4 µM
same,IC50,HCT116 cells; Homo sapiens,16.7 µg/mL and 33.7 µM
same,IC50,Caco2 cells,16.9 µg/mL and 34.2 µM
same,viability at 10 µg/mL,"SW1116 cells [2]; Homo sapiens, SW 1116, 24 h",≥ 50%
same,IC50,"SW1116 cells [2]; Homo sapiens, SW 1116, 24 h",34.4 µg/mL and 69.5 µM
same,"viability at 24 h, 100 μg/mL",in vitro,≥ 50%
same,IC50,CCD-841CoN cells; Homo sapiens,> 100 µg/mL and > 202 µM
same,increase in MDA levels compared to the control cells,RKO cells [4],about 98.0%
same,MDA level compared to the control,SW1116 cells [5],did not cause changes
same,SOD activity compared to cells treated with betulin,[12],modest increase
same,CAT activity compared to the betulin-treated cells,[6],slight decrease
same,catalase activity compared to the control,[7],did not cause changes
same,SOD2 gene expression vs. cisplatin,[9],significant decrease in SOD2 gene expression
same,SOD2 gene expression vs. 5FU,[13],Decreased SOD2 gene expression
same,SOD2 gene expression vs. cisplatin,[13],Decreased SOD2 gene expression
same,CAT gene expression vs. 5FU,[10],significant increase in expression
same,CAT gene expression vs. cisplatin,[10],significant decrease in expression
